Target: STAT3 (Homo sapiens, UniProt P40763)
Experiment: microscale thermophoresis (MST), recombinant human STAT3
Format: binding

STAT3, sequence (P40763 2-770): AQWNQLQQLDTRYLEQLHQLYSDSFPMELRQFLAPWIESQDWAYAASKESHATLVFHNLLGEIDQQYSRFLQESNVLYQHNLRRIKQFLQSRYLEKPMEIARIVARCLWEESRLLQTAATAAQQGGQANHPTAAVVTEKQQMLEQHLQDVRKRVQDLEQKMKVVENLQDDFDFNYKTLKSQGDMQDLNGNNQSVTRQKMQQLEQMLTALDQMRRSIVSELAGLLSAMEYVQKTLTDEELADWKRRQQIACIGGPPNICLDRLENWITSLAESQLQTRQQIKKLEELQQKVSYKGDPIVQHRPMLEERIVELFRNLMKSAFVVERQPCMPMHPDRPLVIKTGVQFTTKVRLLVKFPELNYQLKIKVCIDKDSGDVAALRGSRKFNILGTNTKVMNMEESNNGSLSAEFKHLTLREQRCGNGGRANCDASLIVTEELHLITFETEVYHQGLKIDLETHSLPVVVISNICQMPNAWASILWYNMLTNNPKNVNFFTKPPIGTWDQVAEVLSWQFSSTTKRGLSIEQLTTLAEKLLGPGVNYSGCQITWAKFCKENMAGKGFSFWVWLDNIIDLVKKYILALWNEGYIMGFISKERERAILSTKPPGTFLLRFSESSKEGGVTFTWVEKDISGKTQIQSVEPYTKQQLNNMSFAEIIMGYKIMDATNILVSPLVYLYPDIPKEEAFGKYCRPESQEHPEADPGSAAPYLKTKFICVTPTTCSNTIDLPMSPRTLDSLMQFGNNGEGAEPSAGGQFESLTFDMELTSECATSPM

Question: Which Kd does the source give for `CC(=O)O[C@@H]1C[C@H](O)[C@@]23CO[C@@H](O)[C@]1(C)[C@@H]2C[C@@H](O)[C@]1(C)[C@@H]3C(=O)[C@H](OC(C)=O)[C@@]2(C)[C@H](c3ccoc3)C[C@H]3O[C@]321` [TSN, toosendanin] here?
Answer: 296 nM

Reference: publication PMC9746828, “Small-molecule PROTAC mediates targeted protein degradation to treat STAT3-dependent epithelial cancer” (JCI Insight, 2022)
